Reference: the NIST ThermoML archive (doi:10.1016/j.jct.2016.02.015)
Numbers after ± are expanded uncertainties.

Assay: excess molar enthalpy (molar enthalpy of mixing); xn = mol fraction of the nth substance listed
Conditions: 100 kPa, Liquid, Calvet calorimetry

Question: With `[Li]` [lithium] + [Ga] as the compound, how does the excess molar enthalpy (873 K, x1 = 0.703) read?
Answer: -4.64 ± 0.191 kcal/mol

Question: And the excess molar enthalpy (873 K, x1 = 0.7734)?
Answer: -3.87 ± 0.191 kcal/mol

Question: What about the excess molar enthalpy (873 K, x1 = 0.8058) of the same compound?
Answer: -3.44 ± 0.191 kcal/mol

Question: What about the excess molar enthalpy (873 K, x1 = 0.8391) of the same compound?
Answer: -2.92 ± 0.191 kcal/mol

Question: What about the excess molar enthalpy (873 K, x1 = 0.865) of the same compound?
Answer: -2.51 ± 0.191 kcal/mol

Question: And the excess molar enthalpy (873 K, x1 = 0.894)?
Answer: -2.03 ± 0.191 kcal/mol

Question: And the excess molar enthalpy (873 K, x1 = 0.9218)?
Answer: -1.53 ± 0.191 kcal/mol

Question: And the excess molar enthalpy (873 K, x1 = 0.9468)?
Answer: -0.98 ± 0.191 kcal/mol

Question: And the excess molar enthalpy (873 K, x1 = 0.9801)?
Answer: -0.335 ± 0.191 kcal/mol

Question: What about the excess molar enthalpy (992 K, x1 = 0.0908) of the same compound?
Answer: -1.22 ± 0.12 kcal/mol

Question: What about the excess molar enthalpy (992 K, x1 = 0.1797) of the same compound?
Answer: -2.44 ± 0.12 kcal/mol

Question: What about the excess molar enthalpy (992 K, x1 = 0.2283) of the same compound?
Answer: -3.06 ± 0.0956 kcal/mol

Question: And the excess molar enthalpy (992 K, x1 = 0.3064)?
Answer: -3.85 ± 0.0956 kcal/mol

Question: What about the excess molar enthalpy (992 K, x1 = 0.3748) of the same compound?
Answer: -4.47 ± 0.0956 kcal/mol

Question: What about the excess molar enthalpy (1039 K, x1 = 0.4284) of the same compound?
Answer: -4.73 ± 0.0717 kcal/mol

Question: What about the excess molar enthalpy (1039 K, x1 = 0.5421) of the same compound?
Answer: -5.07 ± 0.0717 kcal/mol

Question: And the excess molar enthalpy (1039 K, x1 = 0.652)?
Answer: -4.78 ± 0.0717 kcal/mol

Question: And the excess molar enthalpy (1039 K, x1 = 0.7322)?
Answer: -4.06 ± 0.0478 kcal/mol

Question: And the excess molar enthalpy (1039 K, x1 = 0.7709)?
Answer: -3.54 ± 0.0478 kcal/mol

Question: And the excess molar enthalpy (1039 K, x1 = 0.7991)?
Answer: -3.06 ± 0.0478 kcal/mol

Question: And the excess molar enthalpy (1039 K, x1 = 0.8282)?
Answer: -2.68 ± 0.0478 kcal/mol
